Data from patent US7560096B2, “Diagnostic procedures using direct injection of gaseous hyperpolarized 129Xe and associated systems and products” (Medi-Physics, Inc, priority 2000, dated 2009).
Read-outs that look alike come from different tables or passages of the source. One block for each compound: values may come before it.

Assays:
[1] = NMR spectra after polarized 129Xe gas injection into the vein of a rabbit; type: in vivo
Description: The signal strength at 8 seconds (FIG. 10P) being about 0.65 that of the original signal (FIG. 10A).
The rabbit survived the experiment. […] The signal strength at 8 seconds (FIG. 10P) being about 0.65 that of the original signal (FIG. 10A). The rabbit was placed in a whole body imager so that the exact location of the signal within the rabbit's body is not disclosed in the spectra. It is noted that a large quantity of the injected gas remained in the gas phase upon injection, most likely due to the size of the lumen used, about 0.5 mm.

[2] = Bubble dissipation model (Krogh's coefficient) for gas bubbles in blood
Description: To better understand bubble dissipation, one can model a string of contiguous bubbles as a cylinder to look at the diffusion of the gas out of the “cylinder” into the surrounding fluid to analyze how the bubble volume or radius decreases with time. Presser et al., in modeling a simulation as stated above, noted that the bubble radius “r” versus time can be represented by the equation: dr/dt=−KΔP/[rln(R/r)] where “K” is Krogh's coefficient (the product of solubility “S” and diffusion coefficient “D” of the gas in the surrounding fluid), “ΔP” is the pressure difference between gas in the bubbles and gas in the alveoli and “R” is the distance from the center of the bubbles to the inner edge of the adjacent alveoli.
That is, for comparative analysis, it is believed that one can evaluate the Krogh's coefficient (S×D) for Xe relative to air. The diffusion coefficient is substantially the same and can be cancelled out. For example, Xe in H2O is about 1.9×10^−5 cm^2/s while methane and water itself are at 2 and 2.3×10^−5 cm^2/s, respectively. Thus, solubility “S” becomes the important factor.

[3] = inhalation, breath-hold; cited from earlier work
[4] = noted for reference; cited from earlier work
[5] = cited from earlier work
[6] = Relaxation of hyperpolarized gas on container surface materials (GE180 glass, high purity aluminum); type: physicochemical; details: for ψ (relaxivity of GE180 glass for the gas): from T1 and A/V=3/R
Description: In order to calculate optimal capillary lengths, relaxivity values or estimates are needed. As a simple estimate, one can consider that an 180 cc spherical chamber of GE180 glass has a relaxation times of about 40 hr for ^3He and about 2 hr for ^129Xe. Knowing the relationship of “A/V=3/R” for a sphere, one can determine the relaxivity ψ of GE180 glass for both gases. The diffusion coefficients are noted for reference below.
The gas contacting surfaces of the injector head 300 can be formed of or coated with suitable materials to inhibit the depolarization of the gas as it travels therethrough. Examples of suitable materials include, but are not limited to, alumminosilicate glass, certain polymer materials or metallic materials or other materials as described herein. Surface coatings, such as a sputter coating of a non-depolarizing material of high purity silver or aluminum. The relaxivity of high purity aluminum for ^129Xe has been recently measured to be about 0.00225 cm/min. Metals other than aluminum which can be used include indium, gold, zinc, tin, copper, bismuth, silver, niobium, and oxides thereof. Preferably, “high purity” metals are employed (i.e., metals which are substantially free of paramagnetic or ferrous impurities) because even minute amounts of undesirable materials or contaminants may degrade the surface. Preferably, the metal is chosen such that it is well below 1 ppm in ferrous or paramagnetic impurity content.

[7] = Inhalation (breath-hold) delivery of hyperpolarized 129Xe: uptake and delivery to the brain; type: in vivo, human
Description: In addition, due to the high solubility of ^129Xe in blood and tissues, vascular and tissue imaging using inhaled hyperpolarized ^129Xe has also been proposed. Generally described, during inhalation delivery, a quantity of hyperpolarized ^129Xe is inhaled by a subject (a subject breathes in the ^129Xe gas) and the subject then holds his or her breath for a short period of time, i.e., a “breath-hold” delivery. This inhaled ^129Xe gas volume then exits the lung space and is generally taken up by the pulmonary vessels and associated blood or pulmonary vasculature at a rate of approximately 0.3% per second. For example, for an inhaled quantity of about 1 liter of hyperpolarized ^129Xe, an estimated uptake is about 3 cubic centimeters per second or a total quantity of about 40 cubic centimeters of ^129Xe over about a 15 second breath-hold period. Accordingly, it has been noted that such uptake can be used to generate images of pulnonary vasculature or even organ systems more distant from the lungs. See co-pending and co-assigned U.S. patent application Ser. No. 09/271,476 to Driehuys et al, entitled Methods for Imaging Pulmonary and Cardiac Vasculature and Evaluating Blood Flow Using Dissolved Polarized ^129Xe. Although primarily directed to inhalation delivery, this application also proposes injection of ^129Xe to replace conventional radioactive tracers in perfusion imaging methods. The contents of this application are hereby incorporated by reference as if recited in full herein.
Many researchers are also interested in the possibility of using inhaled ^129Xe for imaging white matter perfusion in the brain, renal perfusion, and the like. While the inhaled delivery ^129Xe methods are suitable, and indeed, preferable, for many MRI applications for several reasons, such as the non-invasive characteristics attendant with such a delivery to a human subject, it may not be the most efficient method to deliver a sufficiently large dose to more distant (away from the pulmonary vasculature which is proximate to the lungs) target areas of interest. In addition, due to the dilution of the inhaled ^129Xe along the perfusion delivery path, relatively large quantities of the hyperpolarized ^129Xe are typically inhaled in order to deliver a small fraction of the gas to the more distal target sites or organ systems. For example, the brain typically receives only about 13% of the total blood flow in the human body. Thus, the estimated 40 cubic centimeter quantity of hyperpolarized ^129Xe taken up into the pulmonary vessels from the 1-liter inhalation dose can be reduced to only about 5 cubic centimeters by the time it reaches the brain.
Further, the hyperpolarized state of the gas is sensitive and can decay relatively quickly due to a number of relaxation mechanisms. Indeed, the relaxation time (generally represented by a decay constant “T1”) of the ^129Xe in the blood, absent other external depolarizing factors, is estimated at T1=4.0 seconds for venous blood and T1=6.4 s for arterial blood at a magnetic field strength of about 1.5 Tesla. See Wolber et al., Spin-lattice relaxation of laser-polarized xenon in human blood, 96 Proc. Natl. Acad. Sci. USA, pp. 3664-3669 (March 1999). (The more oxygenated arterial blood provides increased polarization life over the relatively de-oxygenated venous blood). […]

[8] = Relaxation time (T1) of polarized 129Xe in blood and lung; type: physicochemical, human
Description: Further, the hyperpolarized state of the gas is sensitive and can decay relatively quickly due to a number of relaxation mechanisms. Indeed, the relaxation time (generally represented by a decay constant “T1”) of the ^129Xe in the blood, absent other external depolarizing factors, is estimated at T1=4.0 seconds for venous blood and T1=6.4 s for arterial blood at a magnetic field strength of about 1.5 Tesla. See Wolber et al., Spin-lattice relaxation of laser-polarized xenon in human blood, 96 Proc. Natl. Acad. Sci. USA, pp. 3664-3669 (March 1999). (The more oxygenated arterial blood provides increased polarization life over the relatively de-oxygenated venous blood). Therefore, for about a 5 second transit time (the time estimate for the uptaken hyperpolarized ^129Xe to travel to the brain from the pulmonary vessels), the ^129Xe polarization is reduced to about 37% of its original value. In addition, the relaxation time of the polarized ^129Xe in the lung itself is typically about 20-25 seconds due to the presence of paramagnetic oxygen. Accordingly, ^129Xe taken up in the latter portion of the breath-hold cycle can decay to have only about 50% of the starting polarization (the polarization level at the initial portion of the breath hold cycle). Thus, generally stated, the average polarization of ^129Xe entering the pulmonary blood can be estimated to be at about 75% of the starting inhaled polarization value. Taking these effects into account, the delivery to the brain of the inhaled ^129Xe can be estimated as about 1.4 cubic centimeters of the inhaled one-liter dose of ^129Xe polarized to the same level as the inhaled gas (0.75×0.37×5 cc's). […] Nonetheless, at least one researcher has made coarse images of ^129Xe in rat brains, but this inhalation administration delivery required large quantities of ^129Xe to be inhaled over a relatively long period of time. […] Unfortunately, the extended inhalation time period and/or associated large quantity dosage of the gas may not be desirable for certain clinical applications.

[9] = Solubilities of gases in water, plasma, blood and tissues; type: physicochemical
Description: The feasibility of gaseous ^129Xe injection, particularly for arterial injections, may appear problematic. For example, it is known that arterial injections of air can lead to an undesirable air embolus. Although with intravenous (IV) injection the introduction of air is less of a concern, great care is typically taken to avoid such occurrences. The injection of CO2 is successful because of its high solubility in blood and the body's unique ability to remove it. The solubility of CO2 in blood and plasma can be difficult to measure because it is chemically metabolized.
Nonetheless, it is believed that the solubility that is of primary interest for the discussion herein and that the CO2 metabolism can be disregarded for the purposes of this comparison.

[10] = cited from earlier work; remark: listed apart in the source

SMILES: [129Xe] [^129Xe]
Survival of the animal ([1]; about 3 cc gas injected into vein of rabbit): survived | Phase of the injected gas in the bloodstream during acquisition ([1]; about 3 cc into vein of rabbit, about 8 seconds): remained substantially in the gas phase | T1 of the gas in the blood ([1]; gas phase in the bloodstream, rabbit): at least 20 seconds | Bubble dissipation rate relative to air in blood ([2]; in blood, faster than air): about 11 times | Rate of uptake of inhaled gas by pulmonary vessels and blood [3]: approximately 0.3 % per second | D (diffusion coefficient of the gas) [4]: 0.065 cm^2/s | Relaxation time T1 in arterial blood ([5]; arterial blood, about 1.5 Tesla): 6.4 s | Relaxation time in the lung ([5]; in the lung, presence of paramagnetic oxygen): 20 to 25 s | Relaxation time T1 in venous blood ([5]; venous blood, about 1.5 Tesla): 4.0 s | ψ (relaxivity of GE180 glass for the gas) [6]: 0.00017 cm/s | Relaxivity of high purity aluminum for 129Xe ([6]; high purity aluminum surface): about 0.00225 cm/min | Quantity by the time it reaches the brain ([7]; from 40 cc taken up of 1-liter inhalation dose, brain receives about 13% of blood flow): about 5 cubic centimeters | Quantity delivered to remote target (brain) as fraction of inhaled 129Xe ([7]; inhalation): about 0.14% | Total quantity taken up ([7]; inhaled about 1 liter, about 15 second breath-hold): about 40 cubic centimeters | Delivery to the brain, as 129Xe polarized to the same level as the inhaled gas ([7]; inhaled one-liter dose (0.75×0.37×5 cc's)): about 1.4 cubic centimeters | Estimated uptake ([7]; inhaled quantity about 1 liter): about 3 cubic centimeters per second | Polarization remaining relative to original value after transit to the brain ([8]; about 5 second transit time from pulmonary vessels to brain): about 37% | Average polarization of 129Xe entering the pulmonary blood, of starting inhaled polarization ([8]; inhalation, breath-hold): about 75% | Polarization of 129Xe taken up in the latter portion of the breath-hold cycle, of starting polarization ([8]; latter portion of breath-hold): about 50%

Time for a 30 μm radius bubble to dissipate ([2]; 30 μm radius bubble): about 20 seconds | Bubble dissipation rate (dr/dt) ([2]; estimated from solubility ratio to air in blood): −1.5 μm/s | Solubility ratio of xenon gas to nitrogen gas in blood ([9]; 0.167/[…], air approximated as nitrogen): ~11 | Solubility relative to air ([9]; in blood, compared with air): about 10 times
SMILES: [Xe] [Xe, xenon]
Diffusion coefficient in H2O [10]: about 1.9×10^−5 cm^2/s

SMILES: O [water]
Diffusion coefficient in H2O [10]: 2.3×10^−5 cm^2/s

SMILES: C [methane]
Diffusion coefficient in H2O ([10]; exponent shared with the following value): 2 ×10^−5 cm^2/s

ψ (relaxivity of GE180 glass for the gas) [6]: 8.1e-06 cm/s
SMILES: [3He] [^3He, reference compound]
D (diffusion coefficient of the gas) [4]: 2.05 cm^2/s
